In this test the test system is arterial thrombosis in a mouse model. Briefly: Arterial thrombosis mouse model (FeCl3 on femoral artery). It is filed as in vivo. As to conditions: i.v. The protocol: The solutions are diluted 3.3-fold in saline and 100 μl/25 g is injected. Thus, the above-mentioned doses of 100 and 300 mg/kg of compound correspond to final doses of 30 and 100 mg/kg.
During the experiments, a soluble salt of the drug is provided (potassium salt of compound C), diluted in saline. Of this formulation, 100 μl/25 g is injected i.v. in the tail vein (dose of 100 mg/kg).
Solutions are injected (100 μl/25 g body weight) i.v. in the tail vein over 2 min to obtain doses of each compound of 30 mg/kg and 100 mg/kg. Aspirin is given the same way at a dose of 200 mg/kg. Clopidogrel is administered by oral gavage at a dose of 20 mg/kg at 6-7 hours prior to the experiment. The animals assigned to each group are matched for body weight. Mice are typically 8-10 weeks old males and are in a 100% Swiss genetic background.
The flow in each image is expressed as a percentage of that at the contralateral side, and data are averaged for all 120 images to determine total flow. The same analysis is performed for 10 min intervals (which gives essentially the same information as the area under the curve). […] Flow before treatment is recorded as 100%, and that in occluded arteries as 0%. At the end of the experiment, blood is collected on 0.01M citrate by heart puncture for determination of blood cell counts. Plasma is prepared by centrifugation and stored at −20° C. for determination of drug levels.
Statistical analysis for differences between two groups is performed by non-parametric Student t-test. Occlusion times >30 min were considered equal to 30 min for statistical analysis. Significance is set at p<0.05.

For `O=C(O)CC/C=C\C[C@@H]1CO[C@H](c2ccccc2Cl)O[C@@H]1c1ccccc1O` [Compound C, (Z)-6-((2S,4S,5R)-2-(2-chlorophenyl)-4-(2-hydroxyphenyl)-1,3-dioxan-5-yl)hex-4-enoic acid], under “30 mg/kg in vehicle”, the Occlusion time result is “slightly prolongs the occlusion time as compared to aspirin (p=0.024), but has no effect as compared to vehicle” and the Total blood flow entry is on record as “no effect on total blood flow”. For the same compound, under “100 mg/kg in vehicle”, the Occlusion time result was “prolongs the occlusion time versus aspirin (p=0.0002), but not versus vehicle only (p=0.095)” and the Total blood flow entry was “slightly improved total blood flow as compared to aspirin (p=0.055), but not as compared to vehicle (p=0.45)”. For the same compound, under “100 mg/kg in vehicle, 0-10 min”, the “Blood flow in the time window 0-10 min” value is given as “significantly higher flow as compared to aspirin (p=0.0002) but not as compared to vehicle only (p=0.11)”.

For the origin of these results see patent publication US20120142766A1, “SUBSTITUTED 1,3-DIOXANES AND THEIR USES” (EVOLVA SA, priority 2007, published 2012).
